Laboratory results from publication PMC5603535, “A network integration approach for drug-target interaction prediction and computational drug repositioning from heterogeneous information” (Nature Communications, 2017).
Several values for one entry are separate records, joined by “and”; a condition that tells them apart may be missing. Equal entries are not always repeated. Entries after “also recorded” stand apart in the source; their conditions may differ.

Legend:
COX-1 [1] = conditions: read-out: IC50 COX-1; common NSAIDs; cited from earlier work
alpha2-containing GlyRs = system: alpha2-containing GlyRs; set-up: method as in Thio et al., 2003; conditions: embryonic mouse hippocampal neurons, low-affinity binding manner, ref Thio et al., 2003; cited from earlier work
COX-2 [2] = target: T1, COX-2 (Homo sapiens, UniProt P35354); conditions: compounds at their IC50 concentrations, 2 h
T1 sequence (P35354 18-604): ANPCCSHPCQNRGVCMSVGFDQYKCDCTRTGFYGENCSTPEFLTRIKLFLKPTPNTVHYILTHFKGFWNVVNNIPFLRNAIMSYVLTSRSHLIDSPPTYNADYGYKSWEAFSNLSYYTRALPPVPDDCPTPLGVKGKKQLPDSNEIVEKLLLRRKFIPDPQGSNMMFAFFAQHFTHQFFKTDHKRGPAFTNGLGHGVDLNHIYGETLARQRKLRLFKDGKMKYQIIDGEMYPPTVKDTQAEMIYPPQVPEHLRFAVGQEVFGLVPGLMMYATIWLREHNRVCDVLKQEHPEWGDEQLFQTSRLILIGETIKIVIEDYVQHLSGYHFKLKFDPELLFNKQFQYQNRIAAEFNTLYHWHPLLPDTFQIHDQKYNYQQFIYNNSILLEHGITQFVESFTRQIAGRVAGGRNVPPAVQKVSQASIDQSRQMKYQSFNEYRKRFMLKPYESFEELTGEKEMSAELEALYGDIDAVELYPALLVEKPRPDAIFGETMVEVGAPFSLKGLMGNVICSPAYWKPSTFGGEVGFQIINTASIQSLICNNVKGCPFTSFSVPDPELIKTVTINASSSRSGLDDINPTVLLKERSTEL

[3] = system: LPS-stimulated peritoneal macrophages; assay: RT-PCR of proinflammatory factors in LPS-stimulated peritoneal macrophages; assay type: cell-based, mouse; conditions: LPS 10 ng/ml
Description: Lipopolysaccharide (LPS) was used to stimulate the cultured peritoneal macrophages for the cellular inflammation model.
(§1) Peritoneal macrophages were isolated from peritoneum by lavage using 20 ml Dulbecco's modified Eagle’s medium (DMEM) and seeded into six-well plates using […] in DMEM of 10% fetal bovine serum (FBS). Non-adherent cells were removed 6 h later, whereas adherent cells were refed with DMEM of 10% FBS and allowed to recover overnight. […] Cells were harvested for subsequent analysis.
Total RNA was extracted from the whole-cell lysates using the Trnzol-A^+ reagent (Tiangen, Cat. no. DP421, China). Reverse transcription was performed using TIANScript RT Kit (Tiangen, Cat. no. KR104-02, China). All real-time PCR reactions were carried out on ABI ViiA 7 Real-Time System (Life Technologies, USA) using TransStart Top Green qPCR SuperMix (Transgen, Cat. no. AQ131-03, China). The formula 2^−ΔΔCt was used to calculate the relative expression. The expression of the housekeeping gene GAPDH was used as an internal control.

COX-2 [4] = target: T1, COX-2; assay: Human recombinant enzyme assay (PGE2 by ELISA): COX-2; assay type: biochemical; conditions: PGE2 levels, 10 μM arachidonic acid
Description: (§2) Next, the tissue extracts from the mouse kidney and the peritoneal macrophages were used for COX selective inhibition assays. […] To further evaluate the selectivity of these predicted drugs on COX-1 and COX-2, we also used the human recombinant enzyme assays to measure the levels of PGE 2 under COX-1 and COX-2 catalyzes, respectively.
(§3) Then the 10 μM arachidonic acid was added to start the reaction and allowed the process to proceed for 10 min. The reaction was terminated by diluting the reaction into buffer containing 25 μM indomethacin. The final levels of PGE 2 were measured by ELISA.

COX = COX fluorescent activity assay on mouse kidney lysates; assay type: biochemical
Description: We further sought to experimentally validate the bioactivities of the COX inhibitors predicted by DTINet (Methods). First, we tested their inhibitory potencies on the mouse kidney lysates using the COX fluorescent activity assays.
(§4) Following stimulation, kidneys were harvested from mice, and macrophages from the above treatment were homogenized in 5 ml of cold phosphate-buffered saline (PBS) containing protease inhibitors and centrifuged at 10,000×g for 15 min at 4 °C. The supernatant was assayed by the COX fluorescent activity assay kit according to the manufacturer’s instructions.

COX-1 [5] = target: T2, COX-1 (Mus musculus, UniProt P22437); assay: COX selective inhibition assay on tissue extracts (COX fluorescent activity, distinguished with SC-560/Dup-697): COX-1; assay type: biochemical; conditions: mouse peritoneal macrophage lysates
T2 construct: the tissue extracts from the mouse kidney and the peritoneal macrophages; from tissue; host or cells: mouse kidney and thioglycollate-elicited peritoneal macrophages (C57BL/6J), homogenate supernatant
T2 sequence (P22437 27-602): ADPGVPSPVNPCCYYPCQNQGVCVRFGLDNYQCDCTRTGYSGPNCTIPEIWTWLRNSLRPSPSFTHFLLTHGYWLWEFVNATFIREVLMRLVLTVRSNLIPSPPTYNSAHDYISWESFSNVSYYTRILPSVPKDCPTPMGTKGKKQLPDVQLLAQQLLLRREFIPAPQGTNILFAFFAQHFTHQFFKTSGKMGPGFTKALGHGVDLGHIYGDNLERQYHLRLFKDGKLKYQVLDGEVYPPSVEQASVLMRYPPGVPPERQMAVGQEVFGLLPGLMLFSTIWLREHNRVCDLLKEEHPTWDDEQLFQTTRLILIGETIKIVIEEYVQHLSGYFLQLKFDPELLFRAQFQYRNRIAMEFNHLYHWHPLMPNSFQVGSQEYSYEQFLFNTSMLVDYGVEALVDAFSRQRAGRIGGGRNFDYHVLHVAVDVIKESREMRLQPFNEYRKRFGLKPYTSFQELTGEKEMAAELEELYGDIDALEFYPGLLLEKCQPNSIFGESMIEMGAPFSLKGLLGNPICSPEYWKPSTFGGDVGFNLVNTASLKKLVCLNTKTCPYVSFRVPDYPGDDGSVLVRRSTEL
Description: as §2, §1, §4

COX-2 [6] = target: T3, COX-2 (Mus musculus, UniProt Q05769); assay: COX selective inhibition assay on tissue extracts (COX fluorescent activity, distinguished with SC-560/Dup-697): COX-2; assay type: biochemical; conditions: mouse peritoneal macrophage lysates
T3 construct: the tissue extracts from the mouse kidney and the peritoneal macrophages; from tissue; host or cells: mouse kidney and thioglycollate-elicited peritoneal macrophages (C57BL/6J), homogenate supernatant
T3 sequence (Q05769 18-604): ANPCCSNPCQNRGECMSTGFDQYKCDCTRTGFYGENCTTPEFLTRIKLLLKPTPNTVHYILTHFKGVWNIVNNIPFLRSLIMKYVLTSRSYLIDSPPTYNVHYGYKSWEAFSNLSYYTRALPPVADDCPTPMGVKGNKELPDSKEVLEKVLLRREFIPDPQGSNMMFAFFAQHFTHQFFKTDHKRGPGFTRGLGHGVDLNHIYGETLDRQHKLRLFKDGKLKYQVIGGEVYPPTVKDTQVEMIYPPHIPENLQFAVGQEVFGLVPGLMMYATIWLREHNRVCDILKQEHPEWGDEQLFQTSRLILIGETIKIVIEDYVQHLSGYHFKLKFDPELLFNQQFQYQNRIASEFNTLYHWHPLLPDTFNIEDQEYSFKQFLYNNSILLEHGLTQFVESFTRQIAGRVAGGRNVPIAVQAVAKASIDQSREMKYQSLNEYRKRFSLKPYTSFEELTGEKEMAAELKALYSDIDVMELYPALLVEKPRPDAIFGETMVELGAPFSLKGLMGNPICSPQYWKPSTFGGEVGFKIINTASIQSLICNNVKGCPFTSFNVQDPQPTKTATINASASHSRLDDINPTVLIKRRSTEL
Description: as §2, §1, §4

[7] = system: GABA A-subtype (GABA-A) receptors; set-up: method as in ref 28 (Wassef et al., 2003); conditions: previous studies, ref 28 (Wassef et al., 2003); cited from earlier work
GlyRs = system: GlyRs; set-up: method as in Liu et al., 2009; conditions: rat hippocampal neurons, ref Liu et al., 2009; cited from earlier work
[8] = system: GABA B-subtype (GABA-B) receptors; set-up: method as in ref 27 (Wu et al., 2011); conditions: previous studies, ref 27 (Wu et al., 2011); cited from earlier work
recombinant human COX-1 = recombinant human COX-1 (Homo sapiens, UniProt P23219); assay: Human recombinant enzyme assay (PGE2 by ELISA): COX-1; assay type: biochemical; conditions: PGE2 levels, 10 μM arachidonic acid
Description: as §2, §3

COX-2 [9] = conditions: cited from earlier work

recombinant human COX-1, sequence (P23219 24-599): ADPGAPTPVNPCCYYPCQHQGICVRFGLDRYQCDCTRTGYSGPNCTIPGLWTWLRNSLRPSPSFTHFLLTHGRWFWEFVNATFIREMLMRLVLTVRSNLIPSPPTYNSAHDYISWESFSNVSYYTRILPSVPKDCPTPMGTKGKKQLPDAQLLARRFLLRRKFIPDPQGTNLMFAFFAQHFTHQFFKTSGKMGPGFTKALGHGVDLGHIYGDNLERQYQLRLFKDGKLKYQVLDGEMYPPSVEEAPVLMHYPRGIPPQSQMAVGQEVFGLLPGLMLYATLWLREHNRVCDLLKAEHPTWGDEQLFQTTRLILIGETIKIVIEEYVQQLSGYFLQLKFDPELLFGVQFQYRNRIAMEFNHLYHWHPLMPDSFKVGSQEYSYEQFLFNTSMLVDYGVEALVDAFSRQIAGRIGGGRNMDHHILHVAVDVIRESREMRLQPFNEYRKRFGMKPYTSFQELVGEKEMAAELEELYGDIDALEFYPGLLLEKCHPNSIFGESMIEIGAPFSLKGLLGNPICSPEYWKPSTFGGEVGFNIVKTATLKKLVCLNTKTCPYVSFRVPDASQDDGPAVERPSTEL

CNC1=Nc2ccc(Cl)cc2C(c2ccccc2)=[N+]([O-])C1 [Chlordiazepoxide]
effect on alpha2-containing GlyRs (alpha2-containing GlyRs): block

NCCCC(O)(P(=O)(O)O)P(=O)(O)O [Alendronate]
inhibition of the binding of [3H] celecoxib to COX-2 (COX-2 [2]): ~40.67% | IL-12p35 production induced by LPS (mRNA, RT-PCR) [3]: significantly inhibited | IC50 (COX-2 [4]): 184 µM | IC50 (COX): 160 µM | Relative COX activity inhibition (%) COX-1 (COX-1 [5]): 57% | Relative COX activity inhibition (%) COX-2 (COX-2 [6]): 43%

CN1CCN(C2=Nc3cc(Cl)ccc3Nc3ccccc32)CC1 [Clozapine]
effect on GABA-A receptors in the cortex [7]: antagonize | effect on GlyRs (GlyRs): non-competitive antagonist | interaction with GABA-B receptors [8]: direct interaction

CCCNC(=O)NS(=O)(=O)c1ccc(Cl)cc1 [Chlorpropamide]
inhibition of the binding of [3H] celecoxib to COX-2 (COX-2 [2]): ~14.00% | IC50 (recombinant human COX-1): 224 µM | IC50 (COX-2 [4]): 152 µM | IC50 (COX): 290 µM and ~300 µM | Relative COX activity inhibition (%) COX-1 (COX-1 [5]): 37% | Relative COX activity inhibition (%) COX-2 (COX-2 [6]): 63%

CCCc1nc2c(C)cc(-c3nc4ccccc4n3C)cc2n1Cc1ccc(-c2ccccc2C(=O)O)cc1 [Telmisartan]
inhibition of the binding of [3H] celecoxib to COX-2 (COX-2 [2]): about 48.33% | IL-12p35 production induced by LPS (mRNA, RT-PCR) [3]: significantly inhibited; also recorded: much stronger suppression effect | LPS induced expression of IL-6 (mRNA, RT-PCR) [3]: strong inhibitory effect | LPS induced expression of TNF-α (mRNA, RT-PCR) [3]: strong inhibitory effect | induction of IL-1β (mRNA, RT-PCR) [3]: strongest suppression effect | IC50 (recombinant human COX-1): 42 µM | IC50 (COX-2 [4]): 91.8 µM | IC50 (COX): 56.1 µM | Relative COX activity inhibition (%) COX-1 (COX-1 [5]): 63% | Relative COX activity inhibition (%) COX-2 (COX-2 [6]): 37%

O=C1CN=C(c2ccccc2)c2cc([N+](=O)[O-])ccc2N1 [Nitrazepam]
effect on alpha2-containing GlyRs (alpha2-containing GlyRs): block

CS(=O)(=O)c1ccc(C2=C(c3ccccc3)C(=O)OC2)cc1 [rofecoxib]
IC50 (COX-2 [9]): 25 µM | IC50 (COX-1 [1]): […]
